Values after ≈ are worked out from the molar mass of the structure shown.
Experiments:
[1] = test system: glycogen synthase kinase-3 (GSK-3); design: method as in earlier work; conditions: ref previous screening of potential GSK-3 inhibitors among the Leishbox; cited from earlier work
Kinetic solubility = assay type: physicochemical; conditions: PBS, 25 °C, kinetic from dmso stock
Method: The analysis was performed using LC-MS/MS (liquid chromatography-tandem mass spectrometry). The LC-MS/MS system used consisted of a Prominence UFLC (Shimadzu Corporation, Kyoto, Japan) chromatography system, interfaced with a LCMS-8045 triple quadrupole mass spectrometer (Shimadzu Corporation, Kyoto, Japan) equipped with an electrospray ionization source (ESI).
PBS pH 7.4 or 2.0 (final concentration of 250 μM) was added to each well of the plates, and the DMSO concentration was kept lower than 2.5%. The plates were sealed and shaken for 24 h (200 rpm/25 °C). The precipitates on the incubation plate were removed by centrifugation (15 min/3000 rpm/25 °C), and the supernatant fractions were quantified by LC-MS/MS. An intermediate standard solution diluted at 0.5 mM in acetonitrile:water (1:1) was prepared from a 10 mM standard solution. A calibration curve was prepared for each of the test compounds and controls by diluting several times the intermediate standard solution to reach the desired concentrations of 50, 40, 20, 2, and 1 μM. The resulting equation for the calibration curve (y = mx + b) was used to calculate the experimental concentration values for the compounds. The chromatogram for analysis was achieved on a Supelco Ascentis express C18 column (3 cm x 2.1 mm, […]), using water +0.05% formic acid (A) and acetonitrile +0.05% formic acid (B) as mobile phases. […]

[2] = test system: L. infantum::tdTomato intracellular amastigotes; experiment: Synergism between 2 and Sb^III against intracellular L. infantum amastigotes; assay type: cell-based, Leishmania infantum
Method: Cells derived from the human monocytic strain THP-1 were cultured in complete Rowell Park Memorial Institute (RPMI)-1640 medium (supplemented with 10% fetal bovine serum, 100 U/mL penicillin, and 100 μg/mL streptomycin). Monocytes were differentiated into macrophages by the addition of 20 ng/mL phorbol myristate acetate (PMA). After 72 h, the macrophages (5 × 10^4), in black 96-well microtiter plates (Corning Incorporated, Corning, NY), were infected with Leishmania (Leishmania) infantum (MHOM/BR/1974/PP75) promastigotes expressing red fluorescence protein on the second day of the stationary phase (20 parasites per macrophage) for 4 h. […] To investigate the possibility of synergism between Sb^III and compound 2, […] different concentrations of these drugs were used (1.0, 0.5, 0.2, 0.1, and 0.05 μg/mL), the solutions of Sb^III and 2 being prepared and diluted the day of the assay. The compounds were tested separately and in combination. […] The EC50 values were determined by nonlinear regression using a Variable slope model (log(concentration) vs growth inhibition) with the GraphPadPrism v8.2.0 (CA, USA) software. By normalizing the data as a fractional response, it was possible to perform the calculation using a Bayesian model. The results were compared to each other to determine whether the combination of compounds has a synergistic, antagonistic or additive effect. Controls with uninfected cells, untreated infected cells, infected cells treated with amphotericin B at 0.25 μM (positive control) or DMSO 1% were used. Quadruplicates were run on the same plate, and the experiments were repeated at least once.

[3] = test system: L. infantum promastigotes; experiment: Antileishmanial activity against promastigotes (MTS); assay type: cell-based; conditions: Leishmania infantum, 72 h
Method: L. infantum promastigotes (MHOM/MA/67/ITMAP-263) were cultured in complete Schneider medium (SigmaAldrich, St. Louis, MO, USA), which consisted of Schneider medium plus 10% heat-inactivated fetal bovine serum (FBS, SigmaAldrich) pH 7.4, at 24 °C. The L. infantum promastigotes were plated at a concentration of 10^5 parasites/mL, and 2 was added at concentrations of 64, 32, 16, 8, 4, 2, 1, 0.5, 0.25, and 0.125 μM. The cells were cultured for 72 h and, after the incubation time, cell proliferation was measured by colorimetric MTS assay. The cells in each well were stained with 20 μL of MTS (Promega, G3580) for 3 h, and the OD at 490 nm was determined with a microplate reader. All experiments were independently repeated at least three times.

[4] = test system: L. infantum promastigotes; experiment: Flow cytometric cell cycle analysis (PI); assay type: cell-based, Leishmania infantum; conditions: 24 h, 0.5x, 1x, 2x IC50, PI
Method: Then, the cells were collected, washed twice with 1 × PBS, and fixed in 70% ethanol at 4 °C for 24 h. The fixed parasites were then washed with 1 × PBS and the pellet was treated with 500 μL of RNase A (20 mg/mL) and incubated at 37 °C for 1 h. Subsequently, the parasites were stained with 10 μg/mL propidium iodide (PI) in the dark for 20 min. Cell cycle distribution, determining the percentage of cells in G0, G1, S, and G2/M phases, was analyzed using an Accuri C5 BD flow cytometer. The histograms presented are representative of results obtained from three independent experiments.

L. braziliensis DHODH = experiment: DHODH inhibition assay (DCIP); assay type: biochemical, Leishmania braziliensis; conditions: 100 μM
Method: The inhibition assay was conducted under the following conditions: 50 mM Tris (pH 8.15), 150 mM KCl, 50 μM DHO, 60 μM DCIP, and 0.1% Triton X-100. 2 was assayed in triplicate at a concentration of 100 μM, using 5% (v/v) DMSO to prepare stock solutions. The reaction was initiated by adding the enzyme, reaching a final enzyme concentration of 165 nM. Enzymatic activity was then measured for 60 s at 610 nm using a microplate reader (SpectraMax Plus 384, Molecular Devices, San Jose, CA, USA) at 25 °C. The uninhibited reaction, containing 5% (v/v) DMSO, was used as a positive control (100% activity).

BALB/c mice = experiment: Acute toxicity / maximum tolerated dose in uninfected mice; assay type: in vivo, mouse; conditions: intraperitoneal, accumulated dose 100 mg/kg, 24 h after last dose
Method: The maximum tolerated dose (MTD) of 2 was determined in BALB/c mice. One male and one female specimen, uninfected, 6 weeks old (ideal weight: 20 g), were each administered intraperitoneally an emulsified sample prepared with 70% PBS1X, 20% PEG 400 (Polyethylene glycol 400, Sigma-Aldrich), 0.16% Tween 80 and 10% of 2, with an initial dose of 5 mg/kg of 2. After 2 h, an additional dose of 15 mg/kg was administered (resulting in an accumulated dose (AD) of 20 mg/kg). After another 2 h, a new dose of 30 mg/kg was administered (AD = 50 mg/kg). After a further 2 h, a final dose of 50 mg/kg (AD = 100 mg/kg) was administered.

Row | Structure (SMILES) | GSK-3 inhibition [1] | solubility kinetic at 24 h (Kinetic solubility; aqueous buffer, pH 2.0) [µM] | solubility kinetic at 24 h (Kinetic solubility; pH 7.4, aqueous buffer) [µM] | IC50 ([2]; Leishmania infantum, 72 h, read-out: IC50 against intracellular amastigotes of L. infantum) [µM] | effect of the combination of 2 and Sb^III (Bayesian model) ([2]; combination of 2 with Sb^III, in vitro against L. infantum) | IC50 [3] [µM] | effect on cell cycle progression [4] | inhibition of DHODH (L. braziliensis DHODH) | signs of acute toxicity (MTD determination) (BALB/c mice)
1 | O=C(c1ccc(O)c(Cl)c1)N1CCN(c2cnccn2)CC1 [Compound 1, (3-Chloro-4-hydroxyphenyl)(4-(pyrazin-2-yl)piperazin-1-yl)methanone] | did not inhibit |  |  |  |  |  |  |  | 
2 | O=C(c1ccc(O)cc1)N1CCN(c2cnccn2)CC1 [Compound 2, (4-Hydroxyphenyl)(4-(pyrazin-2-yl)piperazin-1-yl)methanone] |  | 125 (≈ 35.6 µg/mL) | > 153 | 3.1 ± 1.3 | antagonistic | 7.93 | G0/G1 phase cell cycle arrest | less than 25% | no apparent signs of acute toxicity
